# From article PMC12587545, “Noncytotoxic polymyxin derivatives enhance antibiotic action against multidrug-resistant Gram-negative bacteria” (Antimicrobial Agents and Chemotherapy, 2025)
# Several values for one entry are separate records, joined by “and”; a condition that tells them apart may be missing. Equal entries are not always repeated.
# Legend:
# [1] = test system: MDR Gram-negative bacteria clinical isolates; test: Checkerboard assay, summary over strains; format: cell-based; conditions: of all 14 clinical isolates; number (%)
# E. cloacae = test: Checkerboard assay (antibiotic potentiation); format: cell-based, Enterobacter cloacae; conditions: E. cloacae 121887 (colistin-resistant)
# E. coli = test: Checkerboard assay (antibiotic potentiation); format: cell-based, Escherichia coli; conditions: for Interpretation: antibiotic + compound 1; for MICantibiotic + compound: antibiotic MIC with 8 µg/mL (5 µM) compound 1; for MICantibiotic: antibiotic alone; for Potentiation: of antibiotic by 8 µg/mL (5 µM) compound 1
# P. aeruginosa = test: Checkerboard assay (antibiotic potentiation); format: cell-based, Pseudomonas aeruginosa; conditions: for MICantibiotic: antibiotic alone
# [2] = test system: Methicillin-resistant S. aureus ATCC 22592; test: Checkerboard assay (rifampicin potentiation); format: cell-based; conditions: MRSA ATCC 22592
# Protocol: (§1) The interaction between the compounds and the antibiotics was evaluated using the fractional inhibitory concentration (FIC) index. FIC indices of ≤0.5 is synergistic, 0.5 < × ≤ 4 is additive, whereas >4 is antagonistic ([34]). […] .
# (§2) The bacterial isolates were acquired from ATCC or the Canadian Ward Surveillance (CANWARD) study ([56]). CANWARD isolates were collected from infected patients admitted to participating medical centers across Canada.
# (§3) The antibiotic and compounds were serially diluted 2-fold in CAMHB along the x- and y-axis, respectively, on a 96-well plate that was subsequently incubated with equal volumes of bacterial inoculum overnight at 37°C. Wells containing only media were used as negative controls, and wells containing only bacteria were used as positive controls. Synergy was measured by the FIC index, which is the summation of the individual FICs of the antibiotic and the compound. The FIC is calculated by dividing the MIC of one agent in the presence of another by the MIC of the agent alone. Turbidity was confirmed with a Molecular Devices (United States) EMax Plus microplate reader at a wavelength of 590 nm. The FBS studies were conducted by following a previously published protocol ([29], [50]). The FBS was inactivated by heating at 56°C for 30 min with constant swirling.
# E. faecalis ATCC 29212 = test: Checkerboard assay (rifampicin potentiation); format: cell-based
# Protocol: as §1, §2, §3
# E. faecium ATCC 27270 = test: Checkerboard assay (rifampicin potentiation); format: cell-based
# Protocol: as §1, §2, §3
# A. baumannii = test: Checkerboard assay (antibiotic potentiation); format: cell-based, Acinetobacter baumannii; conditions: for MICantibiotic: antibiotic alone
# K. pneumoniae = test: Checkerboard assay (antibiotic potentiation); format: cell-based, Klebsiella pneumoniae; conditions: for Interpretation: antibiotic + compound 1; for MICantibiotic + compound: antibiotic MIC with 8 µg/mL (5 µM) compound 1; for MICantibiotic: antibiotic alone; for Potentiation: of antibiotic by 8 µg/mL (5 µM) compound 1
# [3] = E. coli 94393 (colistin-resistant)
# [4] = E. coli 94474 (colistin-resistant)
# [5] = of rifampicin by 8 µg/mL (5 µM) compound 1
# [6] = rifampicin MIC with 8 µg/mL (5 µM) compound 1
# [7] = K. pneumoniae 113250 (colistin-resistant)
smiles,measurement,setting,value
CO[C@H]1/C=C/O[C@@]2(C)Oc3c(C)c(O)c4c(O)c(c(/C=N/N5CCN(C)CC5)c(O)c4c3C2=O)NC(=O)/C(C)=C\C=C\[C@H](C)[C@H](O)[C@@H](C)[C@@H](O)[C@@H](C)[C@H](OC(C)=O)[C@@H]1C [Rifampicin],clinical isolates in which the antibiotic was synergized by compound 1,[1],13 (93%) strains
same,Interpretation,E. cloacae; antibiotic + compound 1,Synergy (FIC indices of ≤0.5 is synergistic)
same,MICantibiotic + compound,E. cloacae; antibiotic MIC with 8 µg/mL (5 µM) compound 1,1 µg/mL
same,MICantibiotic,E. cloacae; antibiotic alone,>4 µg/mL
same,Potentiation,E. cloacae; of antibiotic by 8 µg/mL (5 µM) compound 1,≥8-fold
same,Interpretation,E. coli; [3],Synergy (FIC indices of ≤0.5 is synergistic)
same,MICantibiotic + compound,E. coli; [3],0.5 µg/mL
same,MICantibiotic,E. coli; [3],>16 µg/mL
same,Potentiation,E. coli; [3],≥32-fold
same,Interpretation,E. coli; [4],Synergy (FIC indices of ≤0.5 is synergistic)
same,MICantibiotic + compound,E. coli; [4],0.5 µg/mL
same,MICantibiotic,E. coli; [4],8 µg/mL
same,Potentiation,E. coli; [4],16 fold
same,Interpretation,"P. aeruginosa; P. aeruginosa 259-96916, antibiotic + compound 1",Synergy (FIC indices of ≤0.5 is synergistic)
same,MICantibiotic + compound,"P. aeruginosa; P. aeruginosa 259-96916, antibiotic MIC with 8 µg/mL (5 µM) compound 1",0.031 µg/mL
same,MICantibiotic,P. aeruginosa; P. aeruginosa 259-96916,16 µg/mL
same,Potentiation,"P. aeruginosa; P. aeruginosa 259-96916, of antibiotic by 8 µg/mL (5 µM) compound 1",≥512-fold
same,Interpretation,"P. aeruginosa; P. aeruginosa 262-101856, antibiotic + compound 1",Synergy (FIC indices of ≤0.5 is synergistic)
same,MICantibiotic + compound,"P. aeruginosa; P. aeruginosa 262-101856, antibiotic MIC with 8 µg/mL (5 µM) compound 1",2 µg/mL
same,MICantibiotic,P. aeruginosa; P. aeruginosa 262-101856,512 µg/mL
same,Potentiation,"P. aeruginosa; P. aeruginosa 262-101856, of antibiotic by 8 µg/mL (5 µM) compound 1",256 fold
same,Interpretation,"P. aeruginosa; P. aeruginosa 264-105354, antibiotic + compound 1",Synergy (FIC indices of ≤0.5 is synergistic)
same,MICantibiotic,P. aeruginosa; P. aeruginosa 264-105354,32 µg/mL
same,Potentiation,"P. aeruginosa; P. aeruginosa 264-105354, of antibiotic by 8 µg/mL (5 µM) compound 1",≥256-fold
same,Interpretation,"P. aeruginosa; P. aeruginosa 101243 (colistin-resistant), antibiotic + compound 1",Synergy (FIC indices of ≤0.5 is synergistic)
same,MICantibiotic + compound,"P. aeruginosa; P. aeruginosa 101243 (colistin-resistant), antibiotic MIC with 8 µg/mL (5 µM) compound 1",2 µg/mL
same,MICantibiotic,P. aeruginosa; P. aeruginosa 101243 (colistin-resistant),16 µg/mL
same,Potentiation,"P. aeruginosa; P. aeruginosa 101243 (colistin-resistant), of antibiotic by 8 µg/mL (5 µM) compound 1",8 fold
same,Interpretation,"P. aeruginosa; P. aeruginosa 114228 (colistin-resistant), antibiotic + compound 1",Additive (0.5 < × ≤ 4 is additive)
same,MICantibiotic + compound,"P. aeruginosa; P. aeruginosa 114228 (colistin-resistant), antibiotic MIC with 8 µg/mL (5 µM) compound 1",8 µg/mL
same,MICantibiotic,P. aeruginosa; P. aeruginosa 114228 (colistin-resistant),16 µg/mL
same,Potentiation,"P. aeruginosa; P. aeruginosa 114228 (colistin-resistant), of antibiotic by 8 µg/mL (5 µM) compound 1",2 fold
same,Interpretation,"P. aeruginosa; P. aeruginosa PAO1, antibiotic + compound 1",Synergy (FIC indices of ≤0.5 is synergistic)
same,Interpretation,"P. aeruginosa; P. aeruginosa PAO1, antibiotic + compound 3",Additive (0.5 < × ≤ 4 is additive)
same,MICantibiotic + compound,"P. aeruginosa; P. aeruginosa PAO1, antibiotic MIC with 8 µg/mL (5 µM) compound 1",0.063 µg/mL
same,MICantibiotic + compound,"P. aeruginosa; P. aeruginosa PAO1, antibiotic MIC with 8 µg/mL (5 µM) compound 3",32 µg/mL
same,MICantibiotic,P. aeruginosa; P. aeruginosa PAO1,16 µg/mL and 32 µg/mL
same,Potentiation,"P. aeruginosa; P. aeruginosa PAO1, of antibiotic by 8 µg/mL (5 µM) compound 1",≥256-fold
same,Potentiation,"P. aeruginosa; P. aeruginosa PAO1, of antibiotic by 8 µg/mL (5 µM) compound 3",1 fold
same,Potentiation,[2]; [5],1 fold
same,Interpretation,[2]; rifampicin + compound 1,Additive (0.5 < × ≤ 4 is additive)
same,MICantibiotic + compound,[2]; [6],512 µg/mL
same,MICantibiotic,[2]; rifampicin alone,512 µg/mL
same,Potentiation,E. faecalis ATCC 29212; [5],1 fold
same,Interpretation,E. faecalis ATCC 29212; rifampicin + compound 1,Additive (0.5 < × ≤ 4 is additive)
same,MICantibiotic + compound,E. faecalis ATCC 29212; [6],0.5 µg/mL
same,MICantibiotic,E. faecalis ATCC 29212; rifampicin alone,0.5 µg/mL
same,Potentiation,E. faecium ATCC 27270; [5],1 fold
same,Interpretation,E. faecium ATCC 27270; rifampicin + compound 1,Additive (0.5 < × ≤ 4 is additive)
same,MICantibiotic + compound,E. faecium ATCC 27270; [6],0.031 µg/mL
same,MICantibiotic,E. faecium ATCC 27270; rifampicin alone,0.031 µg/mL
same,Interpretation,"A. baumannii; A. baumannii 92247 (colistin-resistant), antibiotic + compound 1",Synergy (FIC indices of ≤0.5 is synergistic)
same,MICantibiotic + compound,"A. baumannii; A. baumannii 92247 (colistin-resistant), antibiotic MIC with 4 µg/mL (2 µM) compound 1",0.031 µg/mL
same,MICantibiotic,A. baumannii; A. baumannii 92247 (colistin-resistant),4 µg/mL
same,Potentiation,"A. baumannii; A. baumannii 92247 (colistin-resistant), of antibiotic by 4 µg/mL (2 µM) compound 1",128 fold
same,Interpretation,"A. baumannii; A. baumannii 110193, antibiotic + compound 1",Synergy (FIC indices of ≤0.5 is synergistic)
same,MICantibiotic + compound,"A. baumannii; A. baumannii 110193, antibiotic MIC with 4 µg/mL (2 µM) compound 1",0.004 µg/mL
same,MICantibiotic,A. baumannii; A. baumannii 110193,4 µg/mL
same,Potentiation,"A. baumannii; A. baumannii 110193, of antibiotic by 4 µg/mL (2 µM) compound 1",≥1024-fold
same,Interpretation,"A. baumannii; A. baumannii AB027, antibiotic + compound 1",Synergy (FIC indices of ≤0.5 is synergistic)
same,MICantibiotic + compound,"A. baumannii; A. baumannii AB027, antibiotic MIC with 4 µg/mL (2 µM) compound 1",0.004 µg/mL
same,MICantibiotic,A. baumannii; A. baumannii AB027,2 µg/mL
same,Potentiation,"A. baumannii; A. baumannii AB027, of antibiotic by 4 µg/mL (2 µM) compound 1",≥512-fold
same,Interpretation,"A. baumannii; A. baumannii AB031, antibiotic + compound 1",Synergy (FIC indices of ≤0.5 is synergistic)
same,MICantibiotic + compound,"A. baumannii; A. baumannii AB031, antibiotic MIC with 4 µg/mL (2 µM) compound 1",0.004 µg/mL
same,MICantibiotic,A. baumannii; A. baumannii AB031,4 µg/mL
same,Potentiation,"A. baumannii; A. baumannii AB031, of antibiotic by 4 µg/mL (2 µM) compound 1",≥1024-fold
same,Interpretation,"A. baumannii; A. baumannii ATCC 17978, antibiotic + compound 1",Synergy (FIC indices of ≤0.5 is synergistic)
same,Interpretation,"A. baumannii; A. baumannii ATCC 17978, antibiotic + compound 3",Additive (0.5 < × ≤ 4 is additive)
same,MICantibiotic + compound,"A. baumannii; A. baumannii ATCC 17978, antibiotic MIC with 8 µg/mL (5 µM) compound 3",2 µg/mL
same,MICantibiotic + compound,"A. baumannii; A. baumannii ATCC 17978, antibiotic MIC with ¼ MIC (≤5 µM) of compound 1",0.016 µg/mL
same,MICantibiotic,A. baumannii; A. baumannii ATCC 17978,8 µg/mL and 4 µg/mL
same,Potentiation,"A. baumannii; A. baumannii ATCC 17978, of antibiotic by 8 µg/mL (5 µM) compound 3",2 fold
same,Potentiation,"A. baumannii; A. baumannii ATCC 17978, of antibiotic by ¼ MIC (≤5 µM) of compound 1",≥512-fold
same,Interpretation,K. pneumoniae; [7],Synergy (FIC indices of ≤0.5 is synergistic)
same,MICantibiotic + compound,K. pneumoniae; [7],2 µg/mL
same,MICantibiotic,K. pneumoniae; [7],32 µg/mL
same,Potentiation,K. pneumoniae; [7],16 fold
same,Interpretation,K. pneumoniae; K. pneumoniae 116381,Synergy (FIC indices of ≤0.5 is synergistic)
same,MICantibiotic + compound,K. pneumoniae; K. pneumoniae 116381,0.25 µg/mL
same,MICantibiotic,K. pneumoniae; K. pneumoniae 116381,>256 µg/mL
same,Potentiation,K. pneumoniae; K. pneumoniae 116381,≥2048-fold
